Where “and” joins values, the source holds several entries; their conditions need not be identical. Identical values can stand only once. Like-named read-outs stand apart in the source and are kept apart here.

For experiment [1], the target named is T1, phosphorylated IRE1α (p-IRE1α) (Homo sapiens, UniProt O75460).
T1 construct: Human IRE1α kinase and RNase domain (residues 547–977) was subcloned into pLIB plasmid; His tag (with TEV cleavage site) (N, cleaved yes); made in house; host or cells: Sf9 insect cells, baculovirus (Bac-to-Bac)
Kind of experiment: FRET-based IRE1α RNase activity assay, phosphorylated IRE1α. The experiment is classed as biochemical. As for the experimental part: (§1) Human IRE1α kinase and RNase domain (residues 547–977) was subcloned into pLIB plasmid with a His tag and TEV cleavage site, and expressed using Bac-to-Bac expression system. The primers used are listed in Supplementary Table S3. The protein purification was performed following established procedures. Briefly, Sf9 cells were infected with baculovirus and incubated at 27 °C 110 rpm for 72 h. The cells were collected by centrifugation at 4000 × g for 15 min and the cell pellet was resuspended in lysis buffer (50 mM HEPES pH 7.5, 300 mM NaCl, 10% glycerol, 1 mM MgCl2, 1 mM TCEP, 5 mM imidazole), then supplemented with 1:10,000 benzonase (Sigma, E1014), 1 tablet/25 mL […]™ Protease Inhibitor Cocktail tablets (Sigma, S8830) and 1 mM PMSF before lysed by sonication at 4 °C. […] The protein elution was incubated with TEV protease to remove His tag at 4 °C overnight. Then the sample was diluted 1:6 in buffer (50 mM HEPES pH 7.5, 1 mM TCEP, 5% glycerol) and loaded onto a 5 mL pre-packaged Q HP anion exchange column (Cytiva, HiTrap Q HP) pre-equilibrated with QA buffer (50 mM HEPES pH 7.5, 50 mM NaCl, 1 mM TCEP, 5% glycerol). The unphosphorylated and phosphorylated protein was separated by eluting the protein with a very shallow gradient with 0-30% buffer QB (50 mM HEPES pH 7.5, 1 M NaCl, 1 mM TCEP, 5% glycerol) over 80 CV. Different peaks were collected separately and verified by LC-MS. The fully phosphorylated fraction was collected and further purified by size exclusion chromatography (Cytiva, HiLoad 16/600 Superdex 200 pg,) with SEC buffer (25 mM HEPES pH 7.5, 250 mM NaCl, 1 mM TCEP, 10% glycerol) and fractioned as monomeric peak. The rest protein fraction from the Q HP anion exchange column was incubated with Lambda protein phosphatase (New England BioLabs, P0753S) overnight at 4 °C, the dephosphorylation was confirmed by LC-MS. The unphosphorylated protein was further purified by size exclusion chromatography with the SEC buffer described above. The purified phosphorylated (p-IRE1α) and dephosphorylated (IRE1α) protein aliquots were stored at −80 °C for future usage.
(§2) The dual-labeled RNA substrate with a FAM at 5’ and the BHQ-1 at 3’ containing the XBP1 sequence (5′FAM-[…]-3′BHQ1) was purchased from Integrated DNA Technologies (IDT). The FRET-based IRE1α RNase activity assay was carried out in reaction buffer containing 20 mM HEPES pH 7.5, 50 mM KOAc, 1 mM MgOAc2, 1 mM DTT, 0.05% v/v TritonX-100, at a total reaction volume of 20 μL in a 384-well black plate (4514, Corning). For unphosphorylated IRE1α (IRE1α), a final concentration of 40 nM IRE1α protein and 100 nM RNA substrate was used. For phosphorylated IRE1 (p-IRE1α), a final concentration of 4 nM p-IRE1α protein and 200 nM RNA substrate was used. The indicated compound and IRE1α protein were incubated for 30 min at room temperature before the substrate was added to the reaction. The plate was then kinetically read over one hour at room temperature using a TECAN Spark plate reader. The measurement was carried out using the fluorescence top reading mode at the excitation wavelength of 485 nm and the emission wavelength of 535 nm with a 10 nm excitation and emission bandwidth. The linear part of the reaction curve was adopted and fitted with sample linear regression to obtain the slope, and the slope was adopted to reflect the reaction rate. The inhibition % was calculated by using the equation: inhibition% = 100 × (slope of DMSO control – slope of the sample)/(slope of DMSO control – slope of blank control), DMSO control: DMSO with protein and RNA substrate; Blank control: DMSO with RNA substrate. The IC50 values were calculated using the concentration-response model in GraphPad Prism 9.

In experiment [2] the target is T2, dephosphorylated IRE1α (547–977) (Homo sapiens, UniProt O75460).
T2 construct: Human IRE1α kinase and RNase domain (residues 547–977) was subcloned into pLIB plasmid; His tag (with TEV cleavage site) (N, cleaved yes); made in house; host or cells: Sf9 insect cells, baculovirus (Bac-to-Bac)
Kind of experiment: FRET-based IRE1α RNase activity assay, dephosphorylated IRE1α. It is filed as biochemical. The method, then: as §1
as §2, with “9. […]” for “9.”

Where [3] appears, read: FRET assay, RNase activity, mean (± SEM), read-out: p-IRE1α IC50.
Where [4] appears, read: FRET assay, source data, unit from Fig. 3, read-out: p-IRE1a IC50, individual replicates (n1-n4).
The mark [5] stands for this setting: FRET assay, RNase activity, mean (± SEM), read-out: IRE1α IC50.
The mark [6] stands for this setting: FRET assay, source data, unit from Fig. 3 / sheet Fig. 2b, read-out: IRE1a IC50, individual replicates (n1-n4).
Setting [7] is: p-IRE1a, individual replicates (n1-n3), Supplementary Fig. 2b, 2c, read-out: IC50.
Where [8] appears, read: p-IRE1a, mean, Supplementary Fig. 2b, 2c, read-out: IC50, mean.
The mark [9] stands for this setting: IRE1a, individual replicates (n1-n4), Supplementary Fig. 2b, 2c, read-out: IC50.
Where [10] appears, read: IRE1a, mean, Supplementary Fig. 2b, 2c, read-out: IC50, mean.

T2 sequence (O75460 547-977): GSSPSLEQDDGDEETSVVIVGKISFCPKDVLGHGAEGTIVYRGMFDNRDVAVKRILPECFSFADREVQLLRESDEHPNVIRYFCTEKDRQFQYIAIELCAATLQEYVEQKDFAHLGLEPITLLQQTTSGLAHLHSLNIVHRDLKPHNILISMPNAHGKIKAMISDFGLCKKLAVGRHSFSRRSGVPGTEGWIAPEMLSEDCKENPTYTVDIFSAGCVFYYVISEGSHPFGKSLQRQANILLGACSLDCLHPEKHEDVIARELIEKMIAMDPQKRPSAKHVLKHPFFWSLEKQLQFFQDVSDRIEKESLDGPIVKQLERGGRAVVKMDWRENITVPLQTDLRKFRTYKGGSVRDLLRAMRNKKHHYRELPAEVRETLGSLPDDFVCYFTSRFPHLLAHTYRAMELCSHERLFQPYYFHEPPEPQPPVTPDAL
T1 sequence (O75460 547-977): as above

Regarding `Cc1c(CCC(=O)O)c2cc(Br)ccc2n1C(=O)C1CCCCC1` [IA165], the “inhibition(%)” value in experiment [1] (p-IRE1a, 0.000847 μM) is -0.707% and 0.787% and -7.504% and -5.865%; in experiment [1] (p-IRE1a, 0.00254 μM), -6.491% and -3.358% and -4.226% and 3.246%; in experiment [1] (p-IRE1a, 0.007621 μM), -0.418% and -0.611% and -4.226% and 0.305%; in experiment [1] (p-IRE1a, 0.068587 μM), 0.450% and 2.715% and -3.792% and 0.305%; in experiment [1] (p-IRE1a, 0.205761 μM), 1.992% and 4.885% and 4.065% and 5.463%; in experiment [1] (p-IRE1a, 1.85185 μM), 36.843% and 31.203% and 36.891%. The “inhibition(%)” value in experiment [1] (p-IRE1a, 5.55556 μM) is 56.028% and 61.836% and 59.894%; in experiment [1] (p-IRE1a, 16.6667 μM) it was 88.753% and 83.846% and 83.803%; in experiment [1] (p-IRE1a, 50 μM), 95.227% and 95.680% and 96.051%; in experiment [2] (IRE1a, 0.617284 μM), 46.932% and 53.398% and 47.875%; in experiment [2] (IRE1a, 1.85185 μM), 60.820% and 65.775% and 59.822%; in experiment [2] (IRE1a, 5.55556 μM), 76.919% and 67.673% and 77.366%. Further, the “inhibition(%)” value in experiment [2] (IRE1a, 16.6667 μM) is 82.061% and 76.393% and 74.507%; in experiment [2] (IRE1a, 50 μM) it was 53.077% and 49.468% and 70.447% and 68.706%. The inhibition at 1.85185 µM was 34% in experiment [1] (p-IRE1a, 1.85185 μM) and 53.7% in experiment [2] (IRE1a, 1.85185 μM). Besides, the inhibition at 5.55556 µM in experiment [1] (p-IRE1a, 5.55556 μM) was found to be 58.9%; in experiment [2] (IRE1a, 5.55556 μM), 76%. Besides, the inhibition at 16.6667 µM stood at 90.7% in experiment [1] (p-IRE1a, 16.6667 μM) and 75.9% in experiment [2] (IRE1a, 16.6667 μM, read-out: inhibition(%)). The inhibition at 50 µM in experiment [1] (p-IRE1a, 50 μM, read-out: inhibition(%)) was determined as 94.7%. Besides, the “effect on IRE1α RNase activity in the FRET assay” value in experiment [2] was “decreased the inhibitory activity”. The molecule also displayed an inhibition at 0.617284 µM in experiment [2] (IRE1a, 0.617284 μM) of 36.9%.

On to `COc1ccc2c(c1)c(CCC(=O)O)c(C)n2C(=O)c1cccc(C(F)(F)F)c1` [IA36], for which the IC50 in experiment [1] (setting [3]) is 60 nM and 56.1 nM; in experiment [1] (setting [4]), 105 nM and 45 nM and 18 nM; in experiment [2] (setting [5]), 100 nM; in experiment [2] (setting [6]) it was 39.8 nM and 135 nM and 138 nM.

Regarding `Cc1ccc2c(NS(=O)(=O)c3ccccc3Cl)cccc2c1Oc1ncccc1-c1ccnc(N[C@H]2CCCNC2)n1` [AMG18], the “inhibition(%)” value in experiment [1] (p-IRE1a, 5.55556 μM) is 100.91% and 100.40% and 100.53% and 99.85%; in experiment [1] (p-IRE1a, 16.6667 μM), 99.21% and 99.54% and 99.79% and 99.45%; in experiment [1] (p-IRE1a, 50 μM) it was 99.53% and 98.55% and 99.75% and 99.47%; in experiment [2] (IRE1a, 5.55556 μM), 93.95% and 92.37% and 91.58% and 94.22%; in experiment [2] (IRE1a, 16.6667 μM), 92.87% and 92.05% and 91.66% and 92.11%; in experiment [2] (IRE1a, 50 μM) it was 89.29% and 89.80% and 92.49% and 93.01%.

In the case of `Cc1c(CCC(=O)O)c2cc(-c3cccs3)ccc2n1C(=O)c1ccccc1` [IA140], the IC50 in experiment [1] (setting [3]) was 7560 nM; in experiment [1] (setting [4]) it was 1970 nM and 10100 nM and 10600 nM; in experiment [2] (setting [5]) it was 2970 nM; in experiment [2] (setting [6]) it was 2310 nM and 3810 nM and 2780 nM.

On to `COc1ccc2c(c1)c(CCC(=O)O)c(C)n2C(=O)c1ccc(-c2ccccc2)cc1` [IA75], for which the IC50 in experiment [1] (setting [3]) was 1150 nM; in experiment [1] (setting [4]), 1470 nM and 1150 nM and 817 nM; in experiment [2] (setting [5]) it was 860 nM; in experiment [2] (setting [6]), 1180 nM and 924 nM and 476 nM.

Turning to `Cc1c(CCC(=O)O)c2cc(Br)ccc2n1C(=O)c1cccs1` [IA44], the IC50 in experiment [1] (setting [7]) is 168 nM and 34.5 nM; in experiment [1] (setting [8]), 100 nM; in experiment [2] (setting [9]), 90 nM and 91.2 nM and 59.1 nM; in experiment [2] (setting [10]) it was 80 nM.

On to `Cc1c(CCC(=O)O)c2cc(Cl)ccc2n1C(=O)c1cccc(C#N)c1` [IA63], for which the IC50 is 204 nM and 404 nM and 78.9 nM in experiment [1] (setting [7]); 230 nM in experiment [1] (setting [8]); 101 nM and 84.1 nM and 98.1 nM in experiment [2] (setting [9]); 90 nM in experiment [2] (setting [10]).

For the molecule `Cc1c(CCC(=O)O)c2cc(-c3ccncc3)ccc2n1C(=O)c1ccccc1` [IA153], the IC50 in experiment [1] (setting [3]) was 11600 nM; in experiment [1] (setting [4]) it was 12400 nM and 15400 nM and 6990 nM; in experiment [2] (setting [5]), 2160 nM; in experiment [2] (setting [6]) it was 2900 nM and 1770 nM and 1820 nM.

Take `COc1ccc2c(c1)c(CC(=O)OC(C)C)c(C)n2C(=O)c1ccc(Cl)cc1` [cms07]: the inhibition at 50 µM is under 30% in experiment [1] (FRET assay at 50 μM, mean (± SEM), read-out: p-IRE1α inhibition%) and under 30% in experiment [2] (FRET assay at 50 μM, mean (± SEM), read-out: IRE1α inhibition%).

As to `COc1ccc2c(c1)c(CCC(=O)O)c(C)n2C(=O)c1ccccn1` [IA04], the IC50 is 820 nM in experiment [1] (setting [3]); 1590 nM and 458 nM and 394 nM in experiment [1] (setting [4]); 530 nM in experiment [2] (setting [5]); 337 nM and 1040 nM and 203 nM in experiment [2] (setting [6]).

The values are drawn from PMC12475274, “Harnessing indole scaffolds to identify small-molecule IRE1α inhibitors modulating XBP1 mRNA splicing” (Nature Communications, 2025).
